Reference: US20100216875A1, “METHODS OF TREATING ALZHEIMER'S DISEASE” (priority 2006, published 2010)
Entries after “also recorded” stand apart in the source; their conditions may differ.

Experiments:
[1] = tested on: β-secretase activity as measured by the APP-derived CTFβ fragment; test: guinea pig brain CTFβ (β-secretase activity) after icv infusion; format: in vivo; details: 0.15 mg/kg/day infused for 7 days; western blot
Description: To better evaluate the effects of CA074Me on β-secretase activity, relative brain levels of CTRβ were assessed by western blots. The CTRβ fragment results from processing of APP at the β-secretase site, which produces the C-terminal β-secretase fragment (CTFβ) of 12 kDA on SDS-PAGE gels.
Brains from animals described in relation to FIG. 10 were extracted and analyzed for CTFβ by […].
Cathepsin B inhibitors were administered directly into the brain by icy infusion with minipumps in time course studies at different doses. Guinea pigs were infused with compounds using Alzet pumps (2.5 μl/hr, with compounds at 1 mg/ml in saline) for 7 and 30 days, and other times. This initial dose of compound was selected because E64d and CA074Me are effective at this dose. Each treatment group consisted of eight to ten guinea pigs, including the vehicle control group.

[2] = tested on: Aβ40 production from endogenous APP in regulated secretory vesicles isolated from chromaffin cells; test: Aβ production from endogenous APP in isolated regulated secretory vesicles; format: biochemical, bovine; details: inhibitor 10 μM
Description: Regulated secretory vesicles isolated from chromaffin cells naturally produce Aβ from endogenous APP when incubated at 37° C. in vitro for several hours. These vesicles can be used as an in vitro screen for compounds that inhibit Aβ production. […] The effects of cathepsin B inhibitors, CA074 (10 μM, ♦) and CA074Me (10 μM, □), on the production of Aβ40 from endogenous APP in regulated secretory vesicles isolated from chromaffin cells was evaluated in time course studies. […] Each inhibitor was tested in triplicate; values represent x±sem (*statistically significant with p<0.05).
Cathepsin B compounds that were effective inhibitors of endogenous II-secretase activity were tested for inhibition of Aβ peptide production in regulated secretory vesicles. The effect of reversible cathepsin B compounds on production of Aβ40 and Aβ42 in isolated chromaffin vesicles was tested by incubating candidate inhibitors (at 10 μM) with lysed chromaffin vesicles under identical conditions as for the β-secretase assay for 8 hours. […] After incubation, Aβ40 and Aβ42 was measured by ELISA assays, as described for measurement of Aβ peptides in brain extracts. Each candidate inhibitor was assayed in triplicate.

[3] = tested on: primary neuronal chromaffin cells; test: Aβ secretion by primary neuronal chromaffin cell cultures; format: cell-based, bovine; details: 50 μM for 18 hours
Description: Neuronal bovine chromaffin cells in primary culture can be used to select compounds that affect Aβ in the regulated or constitutive pathway. Regulated secretory Aβ is determined by measuring Aβ in the cell culture media after inducing the cells to secrete using a triggering stimulus, such as KCl. The constitutive secretory Aβ is determined by measuring Aβ in cell culture media (also called “conditioned media”) from resting cells. […] Regulated secretion was induced by exposing the cells to KCl (50 mM) for 15 minutes. […] Treated cells (+) received CA074Me (50 μM) for 18 hours. The Aβ40 produced by regulated secretion of the treated cells is about 50% less than that produced from regulated secretion by untreated cells. […]
Reversible cathepsin B compounds that inhibited Aβ production in isolated secretory vesicles by at least 50% at 10 μM were tested for reduction of Aβ secreted from the regulated secretory pathway of primary neuronal chromaffin cells. […] Cells were incubated with inhibitors (first at 50 μM) for about 18 hours, and then KCl-induced secretion of Aβ from the regulated secretory pathway was analyzed, by incubating cells in 50 mM KCl for about 15 minutes and measurement of Aβ peptides in the secretion medium Inhibitor effects were more readily detected during increased rates of Aβ production, which can be induced by treatment of cells with PMA (phorbol myristate acetate, 100 nM). […]

[4] = healthy young males, cited from earlier work

## CCCNC(=O)[C@H]1O[C@@H]1C(=O)N[C@H](C(=O)N1CCC[C@H]1C(=O)OC)[C@@H](C)CC [CA074Me]
[1]
  decrease in the amount of brain CTFβ: 50%
[2]
  effect on Aβ production in isolated regulated secretory vesicles: inhibited; also recorded: block Aβ production
[3]; KCl (50 mM) 15 minutes, vs untreated cells
  reduction of Aβ40 produced by regulated secretion: about 50%
[3]; resting cells
  Aβ40 produced by constitutive secretion vs untreated cells: the same

## CCOC(=O)[C@H]1O[C@@H]1C(=O)N[C@@H](CC(C)C)C(=O)NCCC(C)C [E64d]
[4]; 5 mg/kg/day oral
  pulse, resting blood pressure, body temperature, grip force: No change
  subjective or objective symptoms, clinical tests: no change in subjective or objective symptoms or clinical tests
[4]; oral
  absorption: good absorption
  accumulation: no accumulation occurred
  total dose collected in urine: about 30%
